For 13 molecules, EC50 and IC50 results are on record in patent publication US20190388421A1, “NOVEL COMPOUNDS AND PHARMACEUTICAL COMPOSITIONS THEREOF FOR THE TREATMENT OF FIBROSIS” (Galapagos NV, priority 2016, published 2019).

Assay [1] has as its target T1, human GPCR sphingosine 1-phosphate receptor 2 (S1PR2) (Homo sapiens, UniProt O95136).
T1 construct: host or cells: CHO
In words: S1P2 antagonist assay (Ca2+ flux, S1P at EC80). The note with it: CHO-S1PR2 cells, highest concentration 20 μM. In kind it is cell-based. Summed up: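 CHO cells stably overexpressing human S1PR2, serum-starved 1 h and loaded with Fluo8 dye, were read for 3 min after compound addition, then stimulated with S1P at EC80 after 15 min at 37 °C. Top concentration 20 μM in a 10-point 1/3 series; Ca2+ fluorescence ratio normalized to vehicle and S1P EC80, giving EC50.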
In general terms: A change in cytosolic calcium serves as a functional read-out for many receptors and channels.

Assay [2] concerns the target T2, human GPCR sphingosine 1-phosphate receptor 1 (S1PR1) (Homo sapiens, UniProt P21453).
T2 construct: host or cells: CHO
In words: S1PR1 selectivity assay (Ca2+ flux, antagonist). The class given is cell-based. To be noted: S1P1 antagonist EC50, CHO cells overexpressing human S1PR1 and Gq protein. Summed up: (§1)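 CHO cells stably overexpressing human S1PR1 or S1PR5 with Gq were preincubated with compound 15 min at 37 °C, then stimulated with S1P at EC80 (S1PR1) or an S1PR5-specific agonist (S1PR5). Ca2+ fluorescence was read for 3 min; 10-point 1/3 dilutions from 20 μM final, normalized to vehicle and EC80 trigger, gave EC50.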

In assay [3] the target is T3, human GPCR sphingosine 1-phosphate receptor 5 (S1PR5) (Homo sapiens, UniProt Q9H228).
T3 construct: host or cells: CHO
In words: S1PR5 selectivity assay (Ca2+ flux, antagonist, S1PR5 specific agonist trigger). In kind it is cell-based. To be noted: S1P5 antagonist EC50, CHO cells overexpressing human S1PR5 and Gq protein. Summed up:
as §1

For assay [4], the target named is T4, S1PR2 (Homo sapiens, UniProt O95136).
T4 construct: expressed in transfected cells
Nature of the assay: GTP-γS binding assay ([35S]GTPγS, S1P at EC80, S1PR2 membranes). In kind it is biochemical. The note with it: membranes from stable cell line over expressing S1PR2, read-out: S1PR2 EC. Summed up: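 Compounds tested against S1P at its EC80 on membranes (2.5 μg/well) from a stable S1PR2-overexpressing line, pre-incubated with 1 μM GDP 15 min at 4 °C. Buffer: 20 mM Tris pH 7.5, 10 mM MgCl2, 100 mM NaCl, 0.1% fatty-acid-free BSA, 50 ug/ml saponin. Incubated 4 h at room temperature; [35S]GTPγS binding read by WGA SPA beads.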
On the technique in general: Binding of GTPγS marks nucleotide exchange on a G protein.

Assay [5] has as its system HFL-1 cells. In words: IL8 assay in the presence of Human Serum Albumin. In kind it is cell-based. To be noted: HFL1, S1P (5 μM) induced IL-8, HFL-1 cells, with 2% HSA, read-out: HSA IL8 EC50. As for the experimental part:
(§2) S1P is able to induce cytokines such as IL-8 in a process that is S1PR2 dependent (O'Sullivan et al, 2014; Bruennert et al, 2015). This assay is designed to test inhibitory activity of compounds on S1P induced IL-8 on HFL-1 cells, a human fetal lung fibroblast cell line.
To evaluate the influence of plasma protein binding of Sip as well as compound, the S1P induced IL-8 levels were evaluated in presence of 2% Human Serum Albumin (HSA, equivalent to 40% human serum). By adding 2% HSA, which affects both the activity of the compounds as well as the S1P potency, the physiological condition are reproduced and the shift in potency expected under in vivo serum conditions can be measured.
(§3) Human Fetal Lung cells (HFL-1) are seeded in 96 well plates in growth medium (F12K+10% heat inactivated FBS+1% Pen/strep). After overnight incubation at 37° C., 5% CO2 cells are refreshed with starvation medium with HSA (F12K+1% FBS+1% Pen/strep+1.95% HSA). On day three, compounds are added (10 point serial dilution, 30 μM highest concentration, 1/3 dilution, 0.3% DMSO final) and plates are incubated for 1 h at 37° C., 5% CO2. Subsequently S1P at 5 μM final concentration is added and plates are incubated for 16 to 24 h at 37° C., 5% CO2 after which the supernatant was collected. IL-8 levels in the supernatant are determined with the IL-8 ELISA of R&D systems.

Assay [6] deals with HFL-1 cells. In words: IL8 assay (S1P induced IL-8 production). In kind it is cell-based. To be noted: Homo sapiens, HFL1; S1P (1 μM) induced IL-8, HFL-1 cells, without HSA. As to the method:
as §2
as §3, with “medium without” for “medium with”, “FBS+1% Pen/strep).” for “FBS+1% Pen/strep+1.95% HSA).”, “concentration, ⅓” for “concentration, 1/3”, “for one hour” for “for 1 h”, “at 1” for “at 5”, “24 hours” for “24 h”

T3 sequence (Q9H228 whole entry): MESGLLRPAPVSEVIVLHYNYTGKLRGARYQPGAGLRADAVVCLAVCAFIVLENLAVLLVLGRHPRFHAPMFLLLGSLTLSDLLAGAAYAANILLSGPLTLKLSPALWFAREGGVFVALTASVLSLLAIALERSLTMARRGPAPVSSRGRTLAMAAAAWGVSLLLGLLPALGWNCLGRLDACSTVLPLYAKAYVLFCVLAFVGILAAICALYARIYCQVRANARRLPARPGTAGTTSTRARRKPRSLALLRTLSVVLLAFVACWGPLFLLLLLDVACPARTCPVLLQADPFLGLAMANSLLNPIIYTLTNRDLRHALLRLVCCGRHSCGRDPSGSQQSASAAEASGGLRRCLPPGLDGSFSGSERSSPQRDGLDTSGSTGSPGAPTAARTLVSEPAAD
T2 sequence (P21453 whole entry): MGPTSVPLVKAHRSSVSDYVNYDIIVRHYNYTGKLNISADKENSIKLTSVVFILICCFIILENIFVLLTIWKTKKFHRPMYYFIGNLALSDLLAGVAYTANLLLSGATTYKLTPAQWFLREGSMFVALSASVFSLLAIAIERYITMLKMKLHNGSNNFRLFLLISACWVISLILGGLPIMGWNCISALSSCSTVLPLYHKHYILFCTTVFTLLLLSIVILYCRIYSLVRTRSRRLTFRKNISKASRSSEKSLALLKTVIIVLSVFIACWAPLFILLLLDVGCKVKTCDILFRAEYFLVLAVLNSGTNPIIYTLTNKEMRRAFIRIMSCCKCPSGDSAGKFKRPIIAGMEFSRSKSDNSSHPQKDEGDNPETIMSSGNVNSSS
T1 sequence (O95136 whole entry): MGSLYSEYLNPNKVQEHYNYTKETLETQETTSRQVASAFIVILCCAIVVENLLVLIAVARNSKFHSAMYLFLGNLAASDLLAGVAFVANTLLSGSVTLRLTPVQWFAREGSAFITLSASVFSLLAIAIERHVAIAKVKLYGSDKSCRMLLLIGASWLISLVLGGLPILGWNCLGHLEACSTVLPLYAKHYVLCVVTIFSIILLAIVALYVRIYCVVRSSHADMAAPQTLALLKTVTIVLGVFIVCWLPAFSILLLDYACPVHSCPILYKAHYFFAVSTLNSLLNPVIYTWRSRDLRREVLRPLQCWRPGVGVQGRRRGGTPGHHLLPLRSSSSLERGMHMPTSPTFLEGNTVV
T4 sequence (O95136 whole entry): as above

As to `CCOc1nc(C(F)(F)F)cc(NC(=O)NCc2cc(C)c(-c3cn(C)nc3C(F)(F)F)nn2)c1CC` [Compound 46, 1-[2-ethoxy-3-ethyl-6-(trifluoromethyl)-4-pyridyl]-3-[[5-methyl-6-[1-methyl-3-(trifluoromethyl)pyrazol-4-yl]pyridazin-3-yl]methyl]urea], the EC50 turned out to be 17.2 nM in assay [1]; 6610 nM in assay [2]; 6610 nM in assay [3]; 97 nM in assay [4]; 25.6 nM in assay [6]. The IC50 in assay [5] stood at 9950 nM.
Turning to `Cc1cc(CNC(=O)Nc2cc(N3CC(F)(F)C3)nc(C(F)(F)F)c2)nnc1-c1cn(C)nc1C(F)(F)F` [Compound 47], the EC50 was 9.3 nM in assay [1]; 6610 nM in assay [2]; at least 19800 nM in assay [3]; 34.5 nM in assay [4]; 4.6 nM in assay [6]. Also, the IC50 in assay [5] was 42.4 nM.
Consider `Cc1cc(CNC(=O)Nc2cc(OCC(F)F)nc(N3CC(F)(F)C3)c2)nnc1-c1cn(C)nc1C(F)(F)F` [Compound 48, 1-[2-(3,3-difluoroazetidin-1-yl)-6-(2,2-difluoroethoxy)-4-pyridyl]-3-[[5-methyl-6-[1-methyl-3-(trifluoromethyl)pyrazol-4-yl]pyridazin-3-yl]methyl]urea], for which the EC50 is 27.1 nM in assay [1]; 5100 nM in assay [2]; at least 19800 nM in assay [3]; 154 nM in assay [4]; 23.9 nM in assay [6]. The IC50 in assay [5] stood at 104 nM.
Regarding `Cc1cc(CNC(=O)Nc2cc(Cl)nc(OCC(F)F)c2C)nnc1-c1cn(C)nc1C(F)(F)F` [Compound 50, 1-[6-chloro-2-(2,2-difluoroethoxy)-3-methyl-4-pyridyl]-3-[[5-methyl-6-[1-methyl-3-(trifluoromethyl)pyrazol-4-yl]pyridazin-3-yl]methyl]urea], the EC50 in assay [1] came out at 8 nM; in assay [2], 5920 nM; in assay [3] it was 3650 nM; in assay [4], 24.1 nM; in assay [6], 1.5 nM. The IC50 in assay [5] came to 74 nM.
For `CCOc1cc(NC(=O)NCc2cc(C)c(-c3cn(C4CCOC4)nc3C(F)(F)F)nn2)cc(C(F)(F)F)n1` (stereo not drawn) [Compound 52, 1-[2-ethoxy-6-(trifluoromethyl)-4-pyridyl)-3-[[5-methyl-6-[1-tetrahydrofuran-3-yl-3-(trifluoromethyl)pyrazol-4-yl]pyridazin-3-yl]methyl]urea], the EC50 in assay [1] is 11.4 nM; in assay [2], 5890 nM; in assay [3], 6620 nM; in assay [4], 70.2 nM; in assay [6] it was 7.8 nM. Further, the IC50 in assay [5] was 79.3 nM.
With `CCOc1cc(NC(=O)NCc2cc(C)c(-c3cn(CCOC)nc3C(F)(F)F)nn2)cc(C(F)(F)F)n1` [Compound 53, 1-[2-ethoxy-6-(trifluoromethyl)-4-pyridyl]-3-[[6-[1-(2-methoxyethyl)-3-(trifluoromethyl)pyrazol-4-yl]-5-methyl-pyridazin-3-yl]methyl]urea], the EC50 in assay [1] was 10 nM; in assay [2] it was 4020 nM; in assay [3], 6610 nM; in assay [4], 52.4 nM; in assay [6] it was 6.6 nM. Also, in assay [5], the IC50 is 51.2 nM.
As to `CCOc1cc(NC(=O)NCc2cc(C)c(-c3cn(C)nc3C3CC3)nn2)cc(C(F)(F)F)n1` [Compound 54, 1-[[6-(3-cyclopropyl-1-methyl-pyrazol-4-yl)-5-methyl-pyridazin-3-yl]methyl]-3-[2-ethoxy-6-(trifluoromethyl)-4-pyridyl]urea], the EC50 was 15.3 nM in assay [1]; 2480 nM in assay [2]; 4580 nM in assay [3]; 151 nM in assay [4]; 11.6 nM in assay [6]. Moreover, the IC50 in assay [5] was 278 nM.
Consider `CCOc1cc(NC(=O)NCc2cc(C)c(-c3cn(CC4COCCO4)nc3C(F)(F)F)nn2)cc(C(F)(F)F)n1` (stereo not drawn) [Compound 55, 1-[[6-[1-(1,4-dioxan-2-ylmethyl)-3-(trifluoromethyl)pyrazol-4-yl]-5-methyl-pyridazin-3-yl]methyl]-3-[2-ethoxy-6-(trifluoromethyl)-4-pyridyl]urea], for which the EC50 in assay [1] was 16.9 nM; in assay [2], at least 19800 nM; in assay [3] it was 6610 nM; in assay [4], 338 nM; in assay [6], 35.8 nM. The IC50 in assay [5] stood at 179 nM.
Turning to `CCOc1nc(C#N)cc(NC(=O)NCc2cc(C)c(-c3cn(C)nc3C(F)(F)F)nn2)c1C` [Compound 57, 1-(6-cyano-2-ethoxy-3-methyl-4-pyridyl)-3-[[5-methyl-6-[1-methyl-3-(trifluoromethyl)pyrazol-4-yl]pyridazin-3-yl]methyl]urea], the EC50 in assay [1] was 7.6 nM; in assay [2], 6610 nM; in assay [3], 4620 nM; in assay [4] it was 24.4 nM; in assay [6], 0.9 nM. For the same molecule, the IC50 in assay [5] stood at 17.3 nM.
`Cc1cc(CNC(=O)Nc2cc(C#N)nc(OCC(F)F)c2C)nnc1-c1cn(C)nc1C(F)(F)F` [Compound 59, 1-(6-cyano-2-(2,2-difluoroethoxy)-3-methyl-4-pyridyl]-3-[[5-methyl-6-[1-methyl-3-(trifluoromethyl)pyrazol-4-yl]pyridazin-3-yl]methyl]urea]: the EC50 was determined as 7.2 nM in assay [1]; 6610 nM in assay [2]; 5500 nM in assay [3]; 38.5 nM in assay [4]; 0.9 nM in assay [6]. The IC50 in assay [5] was found to be 116 nM.
`Cn1cc(-c2nnc(CNC(=O)Nc3cc(Cl)nc(OCC(F)F)c3)cc2N2CC(F)(F)C2)c(C(F)(F)F)n1` [Compound 60, 1-[2-chloro-6-(2,2-difluoroethoxy)-4-pyridyl]-3-[[5-(3,3-difluoroazetidin-1-yl)-6-[1-methyl-3-(trifluoromethyl)pyrazol-4-yl]pyridazin-3-yl]methyl]urea]: the EC50 in assay [1] was 3280 nM; in assay [2] it was 2800 nM; in assay [3], 6610 nM; in assay [4], 1520 nM; in assay [6], 166 nM. Besides, in assay [5], the IC50 came out at 4340 nM.
Take `CN(C)c1cc(CNC(=O)Nc2cc(Cl)nc(OCC(F)F)c2)nnc1-c1cn(C)nc1C(F)(F)F` [Compound 63, 1-[2-chloro-6-(2,2-difluoroethoxy)-4-pyridyl]-3-[[5-(dimethylamino)-6-[1-methyl-3-(trifluoromethyl)pyrazol-4-yl]pyridazin-3-yl]methyl]urea]: the EC50 in assay [1] turned out to be 66.8 nM; in assay [2], 2080 nM; in assay [3], 11000 nM; in assay [4], 298 nM; in assay [6] it was 55.4 nM. Further, the IC50 in assay [5] was 829 nM.
On to `COc1cc(CNC(=O)Nc2cc(Cl)nc(OCC(F)F)c2)nnc1-c1cn(C)nc1C(F)(F)F` [Compound 64, 1-[2-chloro-6-(2,2-difluoroethoxy)-4-pyridyl]-3-[[5-methoxy-6-[1-methyl-3-(trifluoromethyl)pyrazol-4-yl]pyridazin-3-yl]methyl]urea], for which the EC50 stood at 8.5 nM in assay [1]; 1620 nM in assay [2]; 4380 nM in assay [3]; 48.7 nM in assay [4]; 16.6 nM in assay [6]. The IC50 in assay [5] was 119 nM.
